In ChEMBL document CHEMBL4251553, “Synthesis, anticancer evaluation and pharmacokinetic study of novel 10-O-phenyl ethers of dihydroartemisinin” (Eur J Med Chem, 2017):

What was measured:
HL-60 = test: Antiproliferative activity against human HL60 cells after 96 hrs by MTT assay; type: functional; details: HL-60, 96 h
U-937 = test: Antiproliferative activity against human U937 cells after 96 hrs by MTT assay; type: functional; details: U-937, 96 h
K562 = test: Antiproliferative activity against human K562 cells after 96 hrs by MTT assay; type: functional; details: K562, 96 h
NB-4 = test: Antiproliferative activity against human NB4 cells after 96 hrs by MTT assay; type: functional; details: NB-4, 96 h
PC-3 = test: Antiproliferative activity against human PC3 cells after 96 hrs by MTT assay; type: functional; details: PC-3, 96 h
LNCaP = test: Antiproliferative activity against human LNCAP cells after 96 hrs by MTT assay; type: functional
MDA-MB-231 = test: Antiproliferative activity against human MDA-MB-231 cells after 96 hrs by MTT assay; type: functional; details: MDA-MB-231, 96 h
MCF7 = test: Antiproliferative activity against human MCF7 cells after 96 hrs by MTT assay; type: functional; details: MCF7, 96 h
NCI/ADR-RES = test: Antiproliferative activity against human MCF7/ADR cells after 96 hrs by MTT assay; type: functional
[1] = Selectivity ratio of GI50 for human MCF7 cells to GI50 for human MCF7/ADR cells; type: functional
[2] = Apparent terminal half life in Sprague-Dawley rat at 10 mg/kg, iv administered as single dose by LC-MS/MS analysis; type: ADME, organism-based; details: in vivo, read-out: betat1/2(app) (converted)
[3] = Cmax in Sprague-Dawley rat at 10 mg/kg, iv administered as single dose by LC-MS/MS analysis; type: ADME, organism-based; set-up: dose 10 mg/kg, route intravenous; details: in vivo
[4] = AUC (0 to t) in Sprague-Dawley rat at 10 mg/kg, iv administered as single dose by LC-MS/MS analysis; type: ADME, organism-based; details: in vivo
[5] = AUC (0 to infinity) in Sprague-Dawley rat at 10 mg/kg, iv administered as single dose by LC-MS/MS analysis; type: ADME, organism-based; set-up: dose 10 mg/kg, route intravenous, time infinity; details: in vivo
[6] = Apparent volume of distribution in Sprague-Dawley rat at 10 mg/kg, iv administered as single dose by LC-MS/MS analysis; type: ADME, organism-based; details: in vivo, read-out: Vz
[7] = Apparent clearance in Sprague-Dawley rat at 10 mg/kg, iv administered as single dose by LC-MS/MS analysis; type: ADME, organism-based; details: in vivo, read-out: CL(app) (converted)
[8] = MRT (0 to infinity) in Sprague-Dawley rat at 10 mg/kg, iv administered as single dose by LC-MS/MS analysis; type: ADME, organism-based; details: in vivo
[9] = Plasma concentration in Sprague-Dawley rat at 10 mg/kg, iv administered as single dose measured at 0.083 hrs post dosing by LC-MS/MS analysis; type: ADME, organism-based
[10] = Plasma concentration in Sprague-Dawley rat at 10 mg/kg, iv administered as single dose measured at 0.25 hrs post dosing by LC-MS/MS analysis; type: ADME, organism-based
[11] = Plasma concentration in Sprague-Dawley rat at 10 mg/kg, iv administered as single dose measured at 0.5 hrs post dosing by LC-MS/MS analysis; type: ADME, organism-based
[12] = Plasma concentration in Sprague-Dawley rat at 10 mg/kg, iv administered as single dose measured at 1 hr post dosing by LC-MS/MS analysis; type: ADME, organism-based
[13] = Plasma concentration in Sprague-Dawley rat at 10 mg/kg, iv administered as single dose measured at 2 hrs post dosing by LC-MS/MS analysis; type: ADME, organism-based
[14] = Plasma concentration in Sprague-Dawley rat at 10 mg/kg, iv administered as single dose measured at 4 hrs post dosing by LC-MS/MS analysis; type: ADME, organism-based
[15] = Plasma concentration in Sprague-Dawley rat at 10 mg/kg, iv administered as single dose measured at 8 hrs post dosing by LC-MS/MS analysis; type: ADME, organism-based
[16] = Plasma concentration in Sprague-Dawley rat at 10 mg/kg, iv administered as single dose measured at 24 hrs post dosing by LC-MS/MS analysis; type: ADME, organism-based

For `CC(=O)N1N=C(c2ccc(O[C@H]3O[C@@H]4O[C@@]5(C)CC[C@H]6[C@H](C)CC[C@@H]([C@H]3C)[C@@]46OO5)cc2)CC1c1ccccc1` (stereo not given in full), the GI50 (HL-60) was 25 nM, the GI50 (U-937) was 40 nM and the GI50 (K562) was 73 nM. The GI50 (NB-4) was 29 nM, the GI50 (PC-3) was 110 nM and the GI50 (LNCaP) was 93 nM. The GI50 (MDA-MB-231) was 420 nM, the GI50 (MCF7) was 130 nM and the GI50 (NCI/ADR-RES) was 61 nM. It also gave a RatioGI50 [1] of 2.1, a half-life [2] of 3.87 h and a Cmax [3] of 2430 ng/mL. For the same compound, the AUC(0-t) [4] was 4140 ng·h/mL, the AUC(0-inf) [5] was 4170 ng·h/mL and the Vd [6] was 13.7 L/kg. It also gave a clearance [7] of 41.3 mL/min/kg, an MRT inf [8] of 3.07 h and a concentration at 0.083 h [9] of 2430 ng/mL. It also gave a concentration at 0.25 h [10] of 1900 ng/mL, a concentration at 0.5 h [11] of 1260 ng/mL and a concentration at 1 h [12] of 935 ng/mL. For the same compound, the concentration at 2 h [13] was 523 ng/mL, the concentration at 4 h [14] was 224 ng/mL and the concentration at 8 h [15] was 63.9 ng/mL. It also gave a concentration at 24 h [16] of 6.73 ng/mL.
